Test results from US20220289794A1, “SYNTHETIC ANTIMICROBIAL PEPTIDES” (priority 2019, published 2022).
In brackets after ≈: the same amount, converted by molar mass. Where two headings read alike, the source gives them in different places. Non-standard residues stand in square brackets, D forms with d. Residues, ends and D or L forms follow the SMILES beside them. 2Nal = N[C@@H](Cc1ccc2ccccc2c1)C(=O)O; d2Nal = N[C@H](Cc1ccc2ccccc2c1)C(=O)O

How the values were obtained:
[1] = test system: Methicillin-resistant Staphylococcus aureus MRSA (ATCC BAA-1556); details: ATCC BAA-1556
S. aureus ATCC 29213 = details: ATCC 29213
[2] = test system: Pseudomonas aeruginosa (ATCC 27883)
[3] = test system: Escherichia coli (ATCC 25922); details: ATCC 25922
in vitro = details: human, fresh human red blood cells (washed), pH 7.4

Compound	MIC MRSA ATCC BAA-1556 [1]	MIC S. aureus ATCC 29213 (S. aureus ATCC 29213)	MIC P. aeruginosa ATCC 27883 ([2]; P. aeruginosa ATCC 27883)	MIC E. coli ATCC 25922 [3]	HC50 at 0.5 h (in vitro)	MIC P. aeruginosa ATCC 27883 ([2]; ATCC 27883)
N=C(N)NCCC[C@H]1NC(=O)[C@@H](CCCNC(=N)N)NC(=O)[C@@H](CCCNC(=N)N)NC(=O)[C@@H](CCCNC(=N)N)NC(=O)[C@@H](Cc2ccc3ccccc3c2)NC(=O)[C@@H](Cc2ccc3ccccc3c2)NC(=O)[C@H](Cc2c[nH]c3ccccc23)NC1=O [IFX-109, c[arg-arg-arg-arg-Trp-naI-naI]] (cyclo(W[d2Nal][d2Nal][dR][dR][dR][dR]))	1.5 µg/mL (≈ 1.24 µM)	3.1 µg/mL (≈ 2.57 µM)	12.5 µg/mL (≈ 10.4 µM)	12.5 µg/mL (≈ 10.4 µM)	190 µg/mL	–
N=C(N)NCCC[C@@H](N)C(=O)N[C@@H](CCCNC(=N)N)C(=O)N[C@H](CCCNC(=N)N)C(=O)N[C@@H](CCCNC(=N)N)C(=O)N[C@@H](Cc1c[nH]c2ccccc12)C(=O)N[C@H](Cc1ccc2ccccc2c1)C(=O)N[C@H](Cc1ccc2ccccc2c1)C(=O)O [IFX-110-1] (H-[dR]R[dR]RW[d2Nal][d2Nal]-OH)	3.1 µg/mL (≈ 2.53 µM)	3.1 µg/mL (≈ 2.53 µM)	–	25 µg/mL (≈ 20.4 µM)	330 µg/mL	25 µg/mL (≈ 20.4 µM)
N=C(N)NCCC[C@H]1NC(=O)[C@H](Cc2ccc3ccccc3c2)NC(=O)[C@H](Cc2ccc3ccccc3c2)NC(=O)[C@@H](Cc2c[nH]c3ccccc23)NC(=O)[C@@H](CCCNC(=N)N)NC(=O)[C@@H](CCCNC(=N)N)NC(=O)[C@@H](CCCNC(=N)N)NC1=O [IFX-122, c[arg-arg-arg-arg-trp-NaI-NaI]] (cyclo([2Nal][2Nal][dR][dR][dR][dR][dW]))	3.1 µg/mL (≈ 2.57 µM)	3.1 µg/mL (≈ 2.57 µM)	–	32 µg/mL (≈ 26.5 µM)	220 µg/mL	32 µg/mL (≈ 26.5 µM)
NCCCC[C@@H]1NC(=O)[C@H](CCCCN)NC(=O)[C@H](CCCCN)NC(=O)[C@H](Cc2ccc3ccccc3c2)NC(=O)[C@H](Cc2ccc3ccccc3c2)NC(=O)[C@H](Cc2c[nH]c3ccccc23)NC(=O)[C@H](CCCCN)NC(=O)[C@H](CCCCN)NC1=O [IFX-131, c[Lys-Lys-Lys-Lys-Lys-Trp-NaI-NaI]] (cyclo([2Nal][2Nal]KKKKKW))	12.5 µg/mL (≈ 10.2 µM)	6.2 µg/mL (≈ 5.08 µM)	–	128 µg/mL (≈ 105 µM)	690 µg/mL	64 µg/mL (≈ 52.4 µM)
N=C(N)NCCC[C@@H]1NC(=O)[C@H](Cc2ccc3ccccc3c2)NC(=O)[C@H](Cc2ccc3ccccc3c2)NC(=O)[C@H](Cc2c[nH]c3ccccc23)NC(=O)[C@@H](CCCNC(=N)N)NC(=O)[C@H](CCCNC(=N)N)NC(=O)[C@H](CCCNC(=N)N)NC1=O [IFX-105, c[Arg-Arg-Arg-arg-Trp-NaI-NaI]] (cyclo([2Nal][2Nal]RRR[dR]W))	3.1 µg/mL (≈ 2.57 µM)	3.1 µg/mL (≈ 2.57 µM)	12.5 µg/mL (≈ 10.4 µM)	12.5 µg/mL (≈ 10.4 µM)	130 µg/mL	–
N=C(N)NCCC[C@@H](N)C(=O)N[C@H](CCCNC(=N)N)C(=O)N[C@H](CCCNC(=N)N)C(=O)N[C@H](CCCNC(=N)N)C(=O)N[C@@H](Cc1c[nH]c2ccccc12)C(=O)N[C@H](Cc1ccc2ccccc2c1)C(=O)N[C@H](Cc1ccc2ccccc2c1)C(=O)O [IFX-109-1] (H-[dR][dR][dR][dR]W[d2Nal][d2Nal]-OH)	3.1 µg/mL (≈ 2.53 µM)	3.1 µg/mL (≈ 2.53 µM)	–	12.5 µg/mL (≈ 10.2 µM)	375 µg/mL	12.5 µg/mL (≈ 10.2 µM)
N=C(N)NCCC[C@@H]1NC(=O)[C@H](CCCNC(=N)N)NC(=O)[C@H](CCCNC(=N)N)NC(=O)[C@H](Cc2ccc3ccccc3c2)NC(=O)[C@@H](Cc2ccc3ccccc3c2)NC(=O)[C@H](Cc2c[nH]c3ccccc23)NC(=O)[C@H](CCCNC(=N)N)NC1=O [IFX-103, c[Arg-Arg-Arg-Arg-Trp-naI-NaI]] (cyclo([2Nal]RRRRW[d2Nal]))	3.1 µg/mL (≈ 2.57 µM)	3.1 µg/mL (≈ 2.57 µM)	12.5 µg/mL (≈ 10.4 µM)	12.5 µg/mL (≈ 10.4 µM)	170 µg/mL	–
N=C(N)NCCC[C@@H]1NC(=O)[C@H](CCCNC(=N)N)NC(=O)[C@@H](Cc2ccc3ccccc3c2)NC(=O)[C@@H](Cc2ccc3ccccc3c2)NC(=O)[C@H](Cc2c[nH]c3ccccc23)NC(=O)[C@@H](CCCNC(=N)N)NC(=O)[C@@H](CCCNC(=N)N)NC(=O)[C@H](CCCNC(=N)N)NC1=O [IFX-125, c[Arg-Arg-Arg-arg-arg-Trp-naI-naI]] (cyclo(RRR[dR][dR]W[d2Nal][d2Nal]))	3.1 µg/mL (≈ 2.28 µM)	3.1 µg/mL (≈ 2.28 µM)	–	16 µg/mL (≈ 11.8 µM)	485 µg/mL	32 µg/mL (≈ 23.5 µM)
N=C(N)NCCC[C@H]1NC(=O)[C@@H](CCCNC(=N)N)NC(=O)[C@@H](CCCNC(=N)N)NC(=O)[C@@H](Cc2ccc3ccccc3c2)NC(=O)[C@@H](Cc2ccc3ccccc3c2)NC(=O)[C@@H](Cc2c[nH]c3ccccc23)NC(=O)[C@@H](CCCNC(=N)N)NC(=O)[C@@H](CCCNC(=N)N)NC1=O [IFX-124, c[arg-arg-arg-arg-arg-trp-naI-naI]] (cyclo([d2Nal][d2Nal][dR][dR][dR][dR][dR][dW]))	3.1 µg/mL (≈ 2.28 µM)	3.1 µg/mL (≈ 2.28 µM)	–	16 µg/mL (≈ 11.8 µM)	410 µg/mL	16 µg/mL (≈ 11.8 µM)
